This note sets out measurements from US5135943A, “1H-imidazole derivative compounds and pharmaceutical compositions containing the same” (priority 1984, dated 1992).

Series [1] has as its system Swiss mice. To be noted: mouse, in vivo.
Description: (§3) Such signs included convulsions and Straub tail(vertical righting of the tail).
In the next series the test system is 16 microorganisms. Put plainly: Geometric mean of all MIC measurements, comparative in vitro testing. The class given is cell-based. To be noted: read-out: Geometric means of MIC. The procedure: (§1) Minimum Inhibitory Concentrations (MICS) of Sertaconazole were also measured in comparison to four of the compounds described in the Martin Patent, including a compound, referred to herein as Martin Compound 1, which has the same structure as Sertaconazole, expect that the sulfur in the benzothiophene ring is replaced by an oxygen.
(§2) The results of comparative in vitro testing of Sertaconazole and these four Martin compounds are shown in the following Table II against 16 microorganisms. The reading time is the time interval from the time of inoculation to the time of measurement.

A short description of a further series: in vivo. To be noted: mouse, ip.
The subject of series [2] is Swiss mice. Put plainly: Acute toxicity in Swiss mice i.p. As to conditions: for LD0: Swiss mice i.p.
Description: as §3
In another series the test system is C. albicans 31. Put plainly: MIC, comparative in vitro testing against Martin compounds. Format: cell-based. To be noted: Candida albicans, 31, YNB medium, read-out: MIC. The procedure: as §1, §2
The test system of the next series is C. albicans 32. The series is described as above. The class given is cell-based. As to conditions: Candida albicans, 32, YNB medium, read-out: MIC. The procedure: as §1, §2
A further series deals with C. albicans ATCC E-10231. Described as above. As to conditions: Candida albicans, ATCCE10231, Casitone medium, read-out: MIC. Format: cell-based. As for the experimental part:
as §1, §2

The subject of another series is C. guillermondii. Described as above. Format: cell-based. To be noted: read-out: MIC. The procedure:
as §1, §2

The next series concerns C. tropicalis 25. The description is as above. Format: cell-based. To be noted: YNB medium. As for the experimental part:
as §1, §2

The test system of a further series is C. albicans 15. Described as above. Format: cell-based. As to conditions: Casitone medium. As for the experimental part: as §1, §2
The test system of a further series is C. krusei 24. The description is as above. Format: cell-based. To be noted: read-out: MIC. As for the experimental part: as §1, §2
Another series deals with C. parapsilosis 19. The series is described as above. The class given is cell-based. The procedure: as §1, §2
For the next series, the system named is C. stellatoidea 36232. The series is described as above. Format: cell-based. As for the experimental part: as §1, §2
In a further series the test system is C. albicans 14. The description is as above. As to conditions: Casitone medium. Format: cell-based. The procedure:
as §1, §2

The next series concerns C. pseudotropicalis 21. The description is as above. As to conditions: Kluyveromyces marxianus, 21, Sabouraud medium, read-out: MIC. The class given is cell-based. As for the experimental part: as §1, §2

Values after ≈ are worked out from the molar mass of the structure shown. Read-outs that look alike come from different tables or passages of the source.

Description for in vivo: as §3

By LD50 is commonly meant the dose expected to kill half of the subjects tested. A low value points to a more toxic substance. With `Clc1ccc(C(Cn2ccnc2)OCc2csc3c(Cl)cccc23)c(Cl)c1` (centres unmarked) [Sertaconazole nitrate], in the series on Swiss mice [1] (ip), the LD0 came out at 2000 mg/kg and the LD50 was 8000 mg/kg.
A word on the MIC: it is the lowest concentration that inhibits growth of the organism. `Clc1ccc(C(Cn2ccnc2)OCc2coc3cc(Cl)ccc23)c(Cl)c1` (centres unmarked) [Martin compound 2, reference compound]: the MIC in the series with 16 microorganisms (48 h, SZ vs M2, reading time 48 h) worked out at 0.565 µg/mL (≈ 1.34 µM); in the series on C. albicans 31 (reading time 48 h, SZ vs M2) it was 4 µg/mL (≈ 9.49 µM); in the series with C. albicans 32 (reading time 48 h, SZ vs M2), 4 µg/mL (≈ 9.49 µM); with C. albicans ATCC E-10231 (reading time 48 h, SZ vs M2), 0.5 µg/mL (≈ 1.19 µM); in the series with C. guillermondii (48 h, Casitone medium, reading time 48 h, SZ vs M2), 0.5 µg/mL (≈ 1.19 µM); in the series on C. guillermondii (48 h, YNB medium, reading time 48 h, SZ vs M2), 0.5 µg/mL (≈ 1.19 µM). Further, the MIC came out at 8 µg/mL (≈ 19 µM) with C. tropicalis 25 (Candida tropicalis, 25, 48 h, reading time 48 h, SZ vs M2); 0.06 µg/mL (≈ 0.142 µM) with C. albicans 15 (Candida albicans, 15, 48 h, reading time 48 h, SZ vs M2); 0.05 µg/mL (≈ 0.119 µM) with C. krusei 24 (Pichia kudriavzevii, 24, 48 h, Casitone medium, reading time 48 h, SZ vs M2); 0.5 µg/mL (≈ 1.19 µM) in the series with C. krusei 24 (Pichia kudriavzevii, 24, 48 h, YNB medium, reading time 48 h, SZ vs M2); 1 µg/mL (≈ 2.37 µM) against C. parapsilosis 19 (19, 48 h, Sabouraud medium, reading time 48 h, SZ vs M2); 1 µg/mL (≈ 2.37 µM) in the series on C. parapsilosis 19 (19, 48 h, YNB medium, reading time 48 h, SZ vs M2). In addition, the MIC in the series with C. stellatoidea 36232 (Candida albicans, 36232, 48 h, Casitone medium, reading time 48 h, SZ vs M2) was determined as 0.06 µg/mL (≈ 0.142 µM); with C. stellatoidea 36232 (Candida albicans, 36232, 48 h, Sabouraud medium, reading time 48 h, SZ vs M2) it was 0.5 µg/mL (≈ 1.19 µM); with C. stellatoidea 36232 (Candida albicans, 36232, 48 h, YNB medium, reading time 48 h, SZ vs M2), 1 µg/mL (≈ 2.37 µM); against C. albicans 14 (Candida albicans, 14, 48 h, reading time 48 h, SZ vs M2), 0.25 µg/mL (≈ 0.593 µM); with C. pseudotropicalis 21 (reading time 48 h, SZ vs M2), 0.06 µg/mL (≈ 0.142 µM). Also, the LD50 in the series “in vivo” is 640 mg/kg. Also, the LD0 in the series on Swiss mice [2] came out at 235 mg/kg.
Consider `Clc1ccc(C(Cn2ccnc2)OCc2coc3c(Cl)cccc23)c(Cl)c1` (centres unmarked) [Martin compound 1, reference compound], for which the MIC with 16 microorganisms (60 h, SZ vs M1, reading time 60 h) turned out to be 1.09 µg/mL (≈ 2.58 µM); in the series with C. albicans 31 (reading time 60 h, SZ vs M1) it was 8 µg/mL (≈ 19 µM); with C. albicans 32 (reading time 60 h, SZ vs M1) it was 8 µg/mL (≈ 19 µM); in the series with C. albicans ATCC E-10231 (reading time 60 h, SZ vs M1), 2 µg/mL (≈ 4.74 µM); with C. guillermondii (60 h, Casitone medium, reading time 60 h, SZ vs M1) it was 0.5 µg/mL (≈ 1.19 µM); with C. guillermondii (60 h, YNB medium, reading time 60 h, SZ vs M1) it was 0.5 µg/mL (≈ 1.19 µM). Moreover, the MIC against C. tropicalis 25 (Candida tropicalis, 25, 60 h, reading time 60 h, SZ vs M1) stood at 8 µg/mL (≈ 19 µM); against C. albicans 15 (Candida albicans, 15, 60 h, reading time 60 h, SZ vs M1) it was 1 µg/mL (≈ 2.37 µM); in the series with C. krusei 24 (Pichia kudriavzevii, 24, 60 h, Casitone medium, reading time 60 h, SZ vs M1), 1 µg/mL (≈ 2.37 µM); in the series on C. krusei 24 (Pichia kudriavzevii, 24, 60 h, YNB medium, reading time 60 h, SZ vs M1), 0.25 µg/mL (≈ 0.593 µM); in the series on C. parapsilosis 19 (19, 60 h, Sabouraud medium, reading time 60 h, SZ vs M1) it was 1 µg/mL (≈ 2.37 µM); in the series on C. parapsilosis 19 (19, 60 h, YNB medium, reading time 60 h, SZ vs M1), 0.5 µg/mL (≈ 1.19 µM). The MIC against C. stellatoidea 36232 (Candida albicans, 36232, 60 h, Casitone medium, reading time 60 h, SZ vs M1) is 0.5 µg/mL (≈ 1.19 µM); against C. stellatoidea 36232 (Candida albicans, 36232, 60 h, Sabouraud medium, reading time 60 h, SZ vs M1), 1 µg/mL (≈ 2.37 µM); against C. stellatoidea 36232 (Candida albicans, 36232, 60 h, YNB medium, reading time 60 h, SZ vs M1), 4 µg/mL (≈ 9.49 µM); in the series on C. albicans 14 (Candida albicans, 14, 60 h, reading time 60 h, SZ vs M1), 2 µg/mL (≈ 4.74 µM); with C. pseudotropicalis 21 (reading time 60 h, SZ vs M1), 0.03 µg/mL (≈ 0.0711 µM). In “in vivo”, the LD50 is 518 mg/kg. Moreover, in the series on Swiss mice [2], the LD0 was 285 mg/kg. In the series on Swiss mice [2] (mice), the “signs of intoxication in the central nervous system (convulsions and Straub tail)” value was “evident signs of intoxication in the central nervous system”.
As to `Clc1ccc(C(Cn2ccnc2)OCc2cc3cc(Cl)ccc3o2)c(Cl)c1` (centres unmarked) [Martin compound 3, reference compound], the MIC with 16 microorganisms (48 h, SZ vs M3, reading time 48 h) was 0.497 µg/mL (≈ 1.18 µM); in the series with C. albicans 31 (reading time 48 h, SZ vs M3), 4 µg/mL (≈ 9.49 µM); in the series with C. albicans 32 (reading time 48 h, SZ vs M3), 4 µg/mL (≈ 9.49 µM); in the series on C. albicans ATCC E-10231 (reading time 48 h, SZ vs M3) it was 0.5 µg/mL (≈ 1.19 µM); in the series with C. guillermondii (48 h, Casitone medium, reading time 48 h, SZ vs M3), 0.25 µg/mL (≈ 0.593 µM); in the series with C. guillermondii (48 h, YNB medium, reading time 48 h, SZ vs M3) it was 0.25 µg/mL (≈ 0.593 µM). For the same compound, the MIC in the series on C. tropicalis 25 (Candida tropicalis, 25, 48 h, reading time 48 h, SZ vs M3) was 8 µg/mL (≈ 19 µM); against C. albicans 15 (Candida albicans, 15, 48 h, reading time 48 h, SZ vs M3) it was 0.06 µg/mL (≈ 0.142 µM); with C. krusei 24 (Pichia kudriavzevii, 24, 48 h, Casitone medium, reading time 48 h, SZ vs M3), 0.125 µg/mL (≈ 0.296 µM); in the series on C. krusei 24 (Pichia kudriavzevii, 24, 48 h, YNB medium, reading time 48 h, SZ vs M3), 0.25 µg/mL (≈ 0.593 µM); in the series with C. parapsilosis 19 (19, 48 h, Sabouraud medium, reading time 48 h, SZ vs M3), 0.5 µg/mL (≈ 1.19 µM); with C. parapsilosis 19 (19, 48 h, YNB medium, reading time 48 h, SZ vs M3) it was 1 µg/mL (≈ 2.37 µM). Further, the MIC against C. stellatoidea 36232 (Candida albicans, 36232, 48 h, Casitone medium, reading time 48 h, SZ vs M3) is 0.125 µg/mL (≈ 0.296 µM); in the series with C. stellatoidea 36232 (Candida albicans, 36232, 48 h, Sabouraud medium, reading time 48 h, SZ vs M3) it was 0.5 µg/mL (≈ 1.19 µM); in the series with C. stellatoidea 36232 (Candida albicans, 36232, 48 h, YNB medium, reading time 48 h, SZ vs M3), 4 µg/mL (≈ 9.49 µM); in the series with C. albicans 14 (Candida albicans, 14, 48 h, reading time 48 h, SZ vs M3), 0.5 µg/mL (≈ 1.19 µM); in the series on C. pseudotropicalis 21 (reading time 48 h, SZ vs M3), 0.03 µg/mL (≈ 0.0711 µM). Moreover, the LD50 in “in vivo” was 640 mg/kg. In the series on Swiss mice [1], the “mice with generalized pulmonary edema and congestion” value amounted to 80%. In the series with Swiss mice [1], the “signs of intoxication in the central nervous system (convulsions and Straub tail)” value was “evident signs of intoxication in the central nervous system”. The same compound came in with an LD0 in the series with Swiss mice [1] (ip) of 423 mg/kg.
